Values after ≈ are worked out from the molar mass of the structure shown. Read-outs that look alike come from different tables or passages of the source.
Assays:
[1] = system: large crabgrass; assay: herbicidal activity, application to plants; format: in vivo; conditions: applied to foliage of growing plant at 1 lb./acre
From the text: The herbicidal compounds of our invention have shown the ability to control undesired plants at levels as low as 1 lb./acre. Herbicidal activity is obtained when the 3-nitropyrazole herbicide is applied to the plants to be controlled in the conventional manner, by direct application as a spray or dry formulation to the plant or its supporting soil.

[2] = system: Escherichia coli; assay: in vitro tube dilution test (MIC); format: cell-based; conditions: tube dilution, read-out: MIC
Summary of the method: (§1)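 Standard tube dilution test; MIC reported as micrograms of compound per milliliter.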

[3] = system: Mycoplasma gallisepticum; assay: in vitro tube dilution test (MIC); format: cell-based; conditions: Mycoplasmoides gallisepticum; Mycoplasma gallisepticum, tube dilution; read-out: MIC
Summary of the method: as §1

[4] = system: Streptococcus sp. 80; assay: in vitro tube dilution test (MIC); format: cell-based; conditions: Streptococcus sp. 80, tube dilution; read-out: MIC
From the text: Other compounds of our invention have also been tested in the tube dilution test and shown to have in vitro activity against a number of microorganisms. The table below reports tests of a number of exemplary compounds against exemplary microorganisms. The compounds are identified by their numbers in the listing above. The data are reported as the MIC in micrograms per milliliter against the named exemplary microorganisms.

[5] = system: Salmonella dublin; assay: in vitro tube dilution test (MIC); format: cell-based; conditions: Salmonella enterica; Salmonella dublin, tube dilution; read-out: MIC
[6] = system: Staphylococcus aureus sp. 1130; assay: in vitro tube dilution test (MIC); format: cell-based; conditions: read-out: MIC
[7] = system: Vibrio coli 3811; assay: in vitro tube dilution test (MIC); format: cell-based; conditions: Campylobacter coli; Vibrio coli 3811, tube dilution; read-out: MIC
[8] = system: S. typhimurium; assay: Salmonella typhimurium in chickens, medicated feed; format: in vivo, chicks; conditions: 200 gm./ton feed; for Avg. Wt.: surviving chicks
[9] = system: H. meleagridis; assay: Blackhead in poultry, turkeys; format: in vivo
Procedure: One- to three-week-old chicks and turkey poults were obtained from homogeneous source flocks and allocated into treatment groups. Some groups were held as infected, untreated controls, and other groups were treated with 3-nitropyrazoles by administering the compounds in the birds' feed. Various concentrations of the pyrazoles were administered to determine the least concentration which protected the birds. A few days after the administration of medicated feed began, all of the birds were challenged by rectally administering a suspension of at least 5,000 H. meleagridis protozoa per chick. The challenge organisms had been originally obtained from infected chickens, and were grown in vitro to provide a supply of organisms for testing.
The birds were held for about seven days after the challenge was administered, during which time the administration of pyrazole-medicated feed was continued. Then all of the chicks, including the untreated, infected controls, were sacrificed and necropsied. The cecum and the liver of each bird were examined for characteristic H. meleagridis lesions.
For each compound, the lowest feed concentration which gave an active response is indicated. While feed consumption data were not taken during the tests, the birds ate at such a rate that a feed concentration of 0.02 percent is equivalent to a treatment rate of about 10 mg./kg./day.

[10] = system: Staphylococcus aureus 3055; assay: in vitro tube dilution test (MIC); format: cell-based; conditions: Staphylococcus aureus 3055, tube dilution
From the text: (§2) The other preferred compounds of our invention have also been thoroughly tested in the in vitro tube dilution test.

[11] = system: Escherichia coli 0127; assay: in vitro tube dilution test (MIC); format: cell-based; conditions: Escherichia coli 0127, tube dilution
From the text: as §2

[12] = system: Mycoplasma gallisepticum 38502; assay: in vitro tube dilution test (MIC); format: cell-based; conditions: Mycoplasmoides gallisepticum; Mycoplasma gallisepticum 38502, tube dilution
From the text: as §2

[13] = system: avian E. coli; assay: Colibacillosis in chickens, medicated feed; format: in vivo
[14] = system: Erwinia amylovora; assay: Fire blight of pear, in vivo greenhouse test
Procedure: An in vivo test was conducted against the fire blight organism, Erwinia amylovora. Plants infected with E. amylovora were sprayed with aqueous dispersions containing 100 ppm. and 500 ppm. of the test compounds. […] The compounds are identified below by their compound numbers in the above listing.

[15] = system: Salmonella typhimurium; assay: Salmonellosis in chickens, single injection to day-old chicks; format: in vivo; conditions: Salmonella enterica, TYPHIMURIUM, 168 h; single injection of 60 mg./kg.; seven days; read-out: Survival (converted)
Summary of the method: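 Five day-old chicks per group received one injection of compound at 60 mg./kg., then were challenged next day by subcutaneous S. typhimurium at a dose lethal to most or all untreated controls. Read-out is survivor count, pooled over repeat groups, with untreated challenged controls run in each batch.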

[16] = system: Pseudomonas sp.; assay: in vitro tube dilution test (MIC); format: cell-based
From the text: (§3) Our compound, 1-(2-hydroxyethyl)-3-nitro-4-pyrazolecarboxamide, has been extensively tested in vitro to determine the range of microorganisms against which it is active. The table of data below reports the minimum inhibitory concentration (MIC) at which the compound is effective in controlling a variety of microorganisms in a standard tube dilution test system. The MIC is reported as micrograms of compound per milliliter.
as §2

[17] = system: Salmonella pullorum Ill.; assay: in vitro tube dilution test (MIC); format: cell-based; conditions: Salmonella enterica
From the text: as §3, §2

[18] = system: Mycoplasma hyorhinis; assay: in vitro tube dilution test (MIC); format: cell-based
From the text: as §3, §2

[19] = system: Salmonella heidelburg 1593; assay: in vitro tube dilution test (MIC); format: cell-based; conditions: Salmonella heidelburg 1593, tube dilution
From the text: as §3, §2

[20] = system: Salmonella typhimurium 1335; assay: in vitro tube dilution test (MIC); format: cell-based; conditions: Salmonella enterica; Salmonella typhimurium 1335, tube dilution
From the text: as §3, §2

[21] = system: P. multocida; assay: Mice infected with P. multocida, compound injected subcutaneously; format: in vivo
Procedure: A second test was conducted in much the same way, except that the 3-nitropyrazole was injected to the treated mice subcutaneously at the same time they were infected with the P. multocida culture.

[22] = system: P. multocida; assay: Mice infected with P. multocida, compound in drinking water; format: in vivo; conditions: 7 days
Procedure: Some of the 3-nitropyrazoles were also administered to mice infected with P. multocida. Tests were conducted in which the pyrazoles were administered both by injection and in the drinking water.
The table below reports results of tests in which the compound was administered in the water. Groups of 10 standardized white mice were segregated, and each mouse was infected by injecting a broth culture of P. multocida subcutaneously. The administration of the test compounds was begun at the same time the mice were infected by adding a known amount of the test compound to the drinking water of the mice. One group of infected control mice received no treatment. The mice were observed, and the test was concluded at the end of 7 days. The number of mice in each group which survived the P. multocida infection was recorded.

[23] = system: Pasteurella multocida; assay: in vitro tube dilution test (MIC); format: cell-based; conditions: tube dilution, read-out: MIC
Summary of the method: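 Standard tube dilution test; MIC is the lowest compound concentration controlling growth, given in μg/mL.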

[24] = system: Trypanosoma cruzi (BHC/10 strain); assay: use against Trypanosoma cruzi in rodents; format: in vivo; conditions: 12.5 mg./kg. for 10 days
Procedure: Some 3-nitropyrazoles have been used against Trypanosoma cruzi in rodents. The 3-nitro-1-vinyl-4-pyrazolecarboxamide killed 91 percent of T. cruzi of the BHC/10 strain when administered at 12.5 mg./kg. for 10 days.

[25] = Staphylococcus aureus sp. 1130, tube dilution
[26] = 100 gm./ton, further test, about 5 weeks of age
[27] = 200 gm./ton, further test, about 5 weeks of age
[28] = 300 gm./ton feed, about 5 weeks old, 10^-2 dilution challenge, first test
[29] = Staphylococcus aureus, SP.1130, Staphyloccocus 1130, tube dilution

| MIC [2] | MIC [3] | MIC [4] | MIC [6, 25] | Structure (SMILES) | MIC [5] | MIC [7] | Survival ([8]; Test C) | Avg. Wt. ([8]; Test C) | MIC [10] | MIC [11] | MIC [12] | Avg. Wt. [13, 26] | E. coli Lesions [13, 26] | Mortality [13, 26] | Avg. Wt. [13, 27] | E. coli Lesions [13, 27] | Mortality [13, 27] | E. coli Lesions [13, 28] | Percent Control of fire blight ([14]; 100 ppm.) | Percent Control of fire blight ([14]; 500 ppm.) | further results |
| --- | --- | --- | --- | --- | --- | --- | --- | --- | --- | --- | --- | --- | --- | --- | --- | --- | --- | --- | --- | --- | --- |
| 100 µg/mL (≈ 602 µM) | > 50 µg/mL | 100 µg/mL (≈ 602 µM) | 100 µg/mL (≈ 602 µM) | CCn1cc(C#N)c([N+](=O)[O-])n1 [Compound 1, 1-ethyl-3-nitro-4-pyrazolecarbonitrile] | 100 µg/mL (≈ 602 µM) | 12.5 µg/mL (≈ 75.2 µM) |  |  |  |  |  |  |  |  |  |  |  |  |  |  | control of large crabgrass [1]: kills large crabgrass |
|  |  |  |  | C=CCn1cc(C(N)=O)c([N+](=O)[O-])n1 [Compound 16, 1-allyl-3-nitro-4-pyrazolecarboxamide] | 6.25 µg/mL (≈ 31.9 µM) | 3.12 µg/mL (≈ 15.9 µM) | 25/48 | 64 gm. | 10 µg/mL (≈ 51 µM) | 100 µg/mL (≈ 510 µM) | 50 µg/mL (≈ 255 µM) | 1112 gm. | 40/40 | 16/40 | 1266 gm. | 31/40 | 11/40 | 16/30 | 100% | 60% | Survival ([8]; Test B): 26/36; Avg. Wt. ([8]; Test B): 88 gm.; Active Level (lowest feed concentration which gave an active response) [9]: .02%; Mortality [13, 28]: 0/30; Wt. [13, 28]: 1090 gm.; responders at 60 mg/kg [15]: 100%; MIC [16]: 12.5 µg/mL (≈ 63.7 µM); MIC [17]: < 1.56 µg/mL; MIC [18]: 50 µg/mL (≈ 255 µM); MIC [19]: 25 µg/mL (≈ 127 µM); MIC [20]: 6.25 µg/mL (≈ 31.9 µM); MIC [6, 29]: 6.25 µg/mL (≈ 31.9 µM) |
|  |  |  |  | CC(=O)OCCn1cc(C(N)=O)c([N+](=O)[O-])n1 [Compound 80, 2-(4-carbamoyl-3-nitropyrazol-1-yl)ethyl acetate] | 12.5 µg/mL | 12.5 µg/mL | 29/48 | 67 gm. | 10 µg/mL | 100 µg/mL | 25 µg/mL | 1219 gm. | 38/40 | 10/40 | 1308 gm. | 31/40 | 6/40 | 9/30 | 33% | 50% | Mortality [13, 28]: 1/30; Wt. [13, 28]: 1139 gm.; responders at 60 mg/kg [15]: 70%; Survival ([21]; 2.5 mg./kg. subcutaneous): 4/10; Survival ([21]; 5.0 mg./kg. subcutaneous): 3/10; Survival ([21]; 10.0 mg./kg. subcutaneous): 8/10; Survival ([21]; 25.0 mg./kg. subcutaneous): 9/10; Survival ([22]; 0.1 gm./gal. in drinking water): 9/10; Survival ([22]; 0.2 gm./gal. in drinking water): 6/10; MIC [23]: 25 µg/mL; MIC [16]: 25 µg/mL; MIC [17]: < 1.56 µg/mL; MIC [18]: 50 µg/mL; MIC [19]: 12.5 µg/mL; MIC [20]: 12.5 µg/mL; MIC [6, 29]: 3.12 µg/mL |
| 1.56 µg/mL (≈ 8.56 µM) | 1.56 µg/mL (≈ 8.56 µM) | 25 µg/mL (≈ 137 µM) | 1.56 µg/mL (≈ 8.56 µM) | C=Cn1cc(C(N)=O)c([N+](=O)[O-])n1 [Compound 81, 3-nitro-1-vinyl-4-pyrazolecarboxamide] | 1.56 µg/mL (≈ 8.56 µM) | 25 µg/mL (≈ 137 µM) |  |  |  |  |  | 1109 gm. | 23/40 | 5/40 | 918 gm. | 20/40 | 6/40 |  | 100% | 60% | percent of T. cruzi killed [24]: 91%; MIC [23]: 1.56 µg/mL (≈ 8.56 µM) |
